According to article PMC10115881, “Disrupting the α-synuclein-ESCRT interaction with a peptide inhibitor mitigates neurodegeneration in preclinical models of Parkinson’s disease” (Nature Communications, 2023):

Assays:
[1] = system: A53T a-syn-mediated cytotoxicity in HEK293 cells; test: Pooled lentiviral 7-mer peptide cytotoxicity screen, A53T a-syn + MG132; format: cell-based, human;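 on Slope Norm Reads: reads normalized to total peptide reads per sample with scalar factor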
Description: We used a lentiviral library of 50,549 7-mer peptides enriched in PPI motifs[13] on a green fluorescent protein (GFP) scaffold (Fig. 1A). We infected cells in a pooled format and the amino acid sequence of each peptide served as its own barcode. By using a low multiplicity of infection followed by puromycin selection, each infected cell expressed one unique GFP-peptide. We screened for peptides that reduced a-syn-mediated cytotoxicity or a-syn oligomers in parallel (Fig. 1A). To cause cytotoxicity relevant to PD, we induced proteostatic stress in HEK293 cells by inhibiting the proteasome with MG132 and overexpressing human WT a-syn associated with idiopathic PD in one screen or the more toxic mutant A53T a-syn associated with familial PD in a second screen. This combination of a-syn overexpression and pharmacological proteasome inhibition led to death of most cells, with only those that expressed a protective peptide surviving. By extracting genomic DNA from the surviving cells and amplifying the peptide coding sequences, we identified the protective peptides (Fig. 1A). To detect a-syn oligomers, we used a protein fragment complementation assay (PCA) of a-syn oligomerization in HEK293 cells. In this assay, human A53T a-syn was fused to either the C- or N-terminal half of yellow fluorescent protein (YFP). No fluorescence is detectable while a-syn exists in monomers but, when a-syn oligomerizes, the two halves of YFP come in close enough proximity to form a functional, spontaneously fluorescent protein. […] Our screens yielded 10 hits (Table S1). The hit with the most reads (i.e., the most abundant) was the same peptide in all screens: IPIQLKA (named PDpep1) (Table S1). We validated the cytoprotective effects of PDpep1 in HEK293 cells overexpressing WT or A53T a-syn (Figs. 1B, S1A), as well as its ability to reduce WT or A53T a-syn oligomers in a luciferase-based PCA[18]–[20] compared to a scrambled control peptide (Figs. 1C, S1B).
HEK293T cells (ATCC, CRL-3216) were maintained in DMEM supplemented with 10% FBS and 1% pen/strep/glutamine, and the appropriate selection antibiotics when required. Lentiviruses were made in a 15 cm dish format by transfecting packaging cells (HEK293T) with a three-plasmid system (expression vector, psPAX2 and pMD2.G) and using Polyjet DNA transfection reagent (FroggaBio, SL100688.1). Viral transduction of HEK293T cells were performed with a multiplicity of infection (MOI) of 0.3. Infected cells were selected in puromycin-containing medium to eliminate uninfected cells and three aliquots of cells were collected for sampling of the initial (T0) cell population. Cells were treated with MG132 at concentrations of 0, 10, 25, or 50 µM. For the cell viability screen, surviving cells were collected and gDNA was extracted for identification of peptide inhibitors of cell toxicity. For the inhibition of a-syn aggregation screen, a protein fragment complementation assay (PCA) was used by transfecting cells with split YFP-a-syn constructs following stable expression of the peptides. Cells were sorted based on their YFP fluorescence intensities with a FACSVantage SE cell sorter (BD Bioscience) and gDNA was extracted for identification of peptides.
Genomic DNA (gDNA) from peptide expressing cells at different time-points was extracted using QIAamp DNA Blood Mini Kit. PCR amplifications of peptides from gDNA in parallel with the lentiviral plasmid library (naïve library) were performed using indexed Illumina PCR primers to incorporate both the Illumina adapter sequences and indexing sequences. Each 50 μl reaction contained 3.2 μg of template, 2× PCR buffer, 2× enhancer solution, 300 μM each dNTP, 900 nM each of Adapter A (5′-[…]-[…]-3′) and Adapter B (5′-[…]-[…]-3′), 1 mM MgSO4, 3.75 units of Platinum Pfx polymerase, and water to 50 μl. […]

full-length YFP = test: YFP fluorescence in rat cortical neurons, full length YFP; format: cell-based
Description: Adeno-associated virus (AAV) of a 1/2 serotype was used to express A53T a-syn (AAV-A53T), a truncated version of A53T a-syn lacking amino acids 103–140 (Δa-syn(103–140)), and WT a-syn, fused to either the N-terminal half of YFP (AAV-V1S) or the C-terminal half of YFP (AAV-SV2), all under the control of the CAG promoter, a hybrid of the chicken beta-actin (CBA) promoter fused with the cytomegalovirus (CMV) immediate early enhancer sequence (GeneDetect Ltd.)[46].
Pregnant rats (E17) of the Sprague-Dawley strain were purchased from Envigo. Embryos were surgically removed from the mothers and cortices dissected in Hanks Balanced salt solution (Gibco). […]
Confocal images of primary cortical neurons, iPSC-derived dopaminergic neurons, and LAMP1 staining within the SN were processed using Imaris software (Oxford instruments). […] Mean pixel intensity per GFP^+ cell (for experiments using GFP-tagged peptides) or RFP^+ cell (for experiments using RFP-tagged peptides) was calculated for a-syn or LAMP1 signal using the software’s surfaces module. The software’s surfaces module was used to identify GFP^+/NeuN^+ cells, and number of pS129 a-syn^+ puncta per GFP^+/NeuN^+ cortical neuron was counted using the software’s spots module. Mean pixel intensity per RFP^+/NeuN^+ cortical neuron was calculated for Rab7, cathepsin B, or cathepsin D signals using the software’s surfaces module. […]

## IPIQLKA [PDpep1, initial screen hit peptide IPIQLKA]
[1]
  Reads 10M MG132: 20
  Reads 25M MG132: 3859
  Reads 50M MG132: 13308
  Slope Norm Reads: 40.54
[1]; Illumina reads, average Phred >30
  Reads 0M MG132: 168

## DEEIERQLKALG [PDpep1.3]
full-length YFP
  Effect on YFP fluorescence, full-length YFP: had no effect on fluorescence of YFP alone
